Read-outs that look alike come from different tables or passages of the source.
Assays:
[1] = biological target: T1, mTOR (Homo sapiens (Human), UniProt P42345); assay: biochemical
[2] = system: PI3-K (phosphorylation of AKT at serine 473) in BT20 cells; assay: PI3-Kα cellular assay (phospho-AKT Ser473 ELISA in BT20 cells); details: Homo sapiens, BT-20, 1 h;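 further: lysates read by ELISA with TMB colour at 450 nm, cells given 0.5% DMSO vehicle serve as positive control and cell-free wells as negative control, duplicate wells per concentration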
[3] = biological target: PI3-Kα (Mus musculus (Mouse), UniProt P42337); assay: PI3-Kα biochemical assay (in vitro kinase assay, fluorescence polarization); details: for Ki: read-out: PI3Ka Ki; for PI3Ka Ki: Ki calculated from IC50, [ATP]=30 uM, Km=25 uM;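 on all read-outs here: Insect-cell-expressed mouse p110/p85 complex converting PI(4,5)P2, product PI(3,4,5)P3 detected by displacing TAMRA-tagged PI(3,4,5)P3 from Grip1 PH domain, lower polarization means more product, room temperature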
[4] = biological target: T1, mTOR
[5] = read-out: S473 pAKT 0.5% FBS IC50 (μM)
[6] = read-out: S473 pAKT 10% FBS IC50 (μM)

Sequence of PI3-Kα (P42337 whole entry, the tested form may be a part): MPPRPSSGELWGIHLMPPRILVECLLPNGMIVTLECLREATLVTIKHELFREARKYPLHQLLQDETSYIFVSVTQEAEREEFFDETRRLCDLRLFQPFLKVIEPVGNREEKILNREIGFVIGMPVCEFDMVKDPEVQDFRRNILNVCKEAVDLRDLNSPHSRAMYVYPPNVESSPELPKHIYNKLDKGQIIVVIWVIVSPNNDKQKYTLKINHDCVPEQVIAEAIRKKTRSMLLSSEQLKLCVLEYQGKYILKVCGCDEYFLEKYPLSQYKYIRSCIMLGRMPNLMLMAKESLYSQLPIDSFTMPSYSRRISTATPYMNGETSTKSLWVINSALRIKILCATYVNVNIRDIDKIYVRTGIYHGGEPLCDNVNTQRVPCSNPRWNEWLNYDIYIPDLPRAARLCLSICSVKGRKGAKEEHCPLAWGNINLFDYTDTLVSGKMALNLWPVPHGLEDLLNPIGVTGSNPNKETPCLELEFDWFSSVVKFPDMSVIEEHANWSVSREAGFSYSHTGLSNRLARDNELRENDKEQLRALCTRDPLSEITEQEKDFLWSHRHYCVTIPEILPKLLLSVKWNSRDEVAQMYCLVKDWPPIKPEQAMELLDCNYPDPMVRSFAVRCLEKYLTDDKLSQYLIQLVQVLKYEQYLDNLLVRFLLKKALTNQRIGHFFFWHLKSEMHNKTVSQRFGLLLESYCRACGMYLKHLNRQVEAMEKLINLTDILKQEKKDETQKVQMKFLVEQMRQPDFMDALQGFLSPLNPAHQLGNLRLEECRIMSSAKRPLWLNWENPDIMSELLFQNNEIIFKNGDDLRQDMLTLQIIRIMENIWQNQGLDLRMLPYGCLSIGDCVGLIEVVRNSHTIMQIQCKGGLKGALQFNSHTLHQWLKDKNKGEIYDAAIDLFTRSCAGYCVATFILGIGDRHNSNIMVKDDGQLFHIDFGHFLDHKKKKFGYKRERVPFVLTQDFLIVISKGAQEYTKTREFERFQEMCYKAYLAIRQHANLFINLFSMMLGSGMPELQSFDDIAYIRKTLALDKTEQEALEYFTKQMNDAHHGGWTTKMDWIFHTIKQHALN
Sequence of PI3-Kα (P26450 whole entry partner, the tested form may be a part): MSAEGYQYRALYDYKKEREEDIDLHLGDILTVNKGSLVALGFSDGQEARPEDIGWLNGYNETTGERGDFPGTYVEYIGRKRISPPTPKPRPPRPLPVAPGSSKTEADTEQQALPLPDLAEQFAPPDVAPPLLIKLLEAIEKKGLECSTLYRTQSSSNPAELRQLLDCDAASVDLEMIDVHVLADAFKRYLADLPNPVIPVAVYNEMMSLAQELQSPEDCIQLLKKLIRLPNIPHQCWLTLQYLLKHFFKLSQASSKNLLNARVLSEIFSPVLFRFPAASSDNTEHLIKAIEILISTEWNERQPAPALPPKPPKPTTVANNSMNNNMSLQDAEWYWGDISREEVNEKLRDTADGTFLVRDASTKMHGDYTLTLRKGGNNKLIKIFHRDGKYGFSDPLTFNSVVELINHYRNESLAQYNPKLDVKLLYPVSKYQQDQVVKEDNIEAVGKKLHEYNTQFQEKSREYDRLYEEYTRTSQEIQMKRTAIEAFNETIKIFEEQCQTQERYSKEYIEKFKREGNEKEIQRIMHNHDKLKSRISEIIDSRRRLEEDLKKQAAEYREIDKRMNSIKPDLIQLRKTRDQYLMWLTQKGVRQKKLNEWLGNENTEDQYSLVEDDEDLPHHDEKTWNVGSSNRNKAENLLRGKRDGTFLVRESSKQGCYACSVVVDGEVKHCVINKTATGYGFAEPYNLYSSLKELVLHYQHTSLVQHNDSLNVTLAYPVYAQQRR
T1 sequence (P42345 2156-2469): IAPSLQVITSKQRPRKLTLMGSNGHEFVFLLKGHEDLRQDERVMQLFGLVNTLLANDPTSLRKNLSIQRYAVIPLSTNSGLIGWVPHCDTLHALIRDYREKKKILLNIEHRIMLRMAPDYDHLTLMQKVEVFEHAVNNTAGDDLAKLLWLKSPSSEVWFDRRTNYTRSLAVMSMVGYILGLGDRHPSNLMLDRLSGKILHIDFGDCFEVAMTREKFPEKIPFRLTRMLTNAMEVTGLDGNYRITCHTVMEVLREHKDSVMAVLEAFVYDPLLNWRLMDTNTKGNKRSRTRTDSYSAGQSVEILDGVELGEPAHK

## CC(C)(C#N)c1ccc(-n2c(=O)[nH]c3cnc4ccc(-c5cnc6ccccc6c5)nc4c32)cc1 [Compound 101, 2-methyl-2-[4-(2-oxo-8-quinolin-3-yl-2,3-dihydro-1H-imidazo[4,5-c]-1,5-naphthyridin-1-yl)phenyl]propanenitrile]
[1]
  Ki: 3.63 nM
[2]; [5]
  IC50: 0.00647 µM
[3]
  Ki: 4.4 nM

## O=C(OCc1ccccc1)N1CCC(n2c(=O)[nH]c3cnc4ccc(-c5cnc6ccccc6c5)nc4c32)CC1 [Compound 115, benzyl4-(2-oxo-8-quinolin-3-yl-2,3-dihydro-1H-imidazo[4,5-c][1,5]naphthyridin-1-yl)piperidine-1-carboxylate]
[1]
  Ki: 21.5 nM
[2]; [5]
  IC50: 0.0322 µM
[3]
  Ki: 7.77 nM

## COc1ncc(-c2ccc3ncc4c(c3n2)n(C2CCN(CC(N)=O)CC2)c(=O)n4C)cn1 [Compound 190, 2-{4-[8-(2-methoxypyrimidin-5-yl)-3-methyl-2-oxo-2,3-dihydro-1H-imidazo[4,5-c][1,5]naphthyridin-1-yl]piperidin-1-yl}acetamide]
[1]
  Ki: 9.76 nM
[2]; [6]
  IC50: 0.0903 µM
[3]
  Ki: 4.96 nM

## CC(=O)N1CCC(n2c(=O)n(C)c3cnc4ccc(-c5cccc6ncccc56)nc4c32)CC1 [Compound 249, 1-(1-acetylpiperidin-4-yl)-3-methyl-8-quinolin-5-yl-1,3-dihydro-2H-imidazo[4,5-c][1,5]naphthyridin-2-one]
[1]
  Ki: 442 nM
[2]; [6]
  IC50: 0.194 µM
[3]
  Ki: 4.51 nM

## Cn1c(=O)n(-c2ccc(C(C)(C)C#N)cc2)c2c3nc(-c4cnc5ccccc5c4)ccc3ncc21 [Compound 102, 2-methyl-2-[4-(3-methyl-2-oxo-8-quinolin-3-yl-2,3-dihydro-1H-imidazo[4,5-c]-1,5-naphthyridin-1-yl)phenyl]propanenitrile]
[1]
  Ki: 3.01 nM
[2]; [5]
  IC50: 0.00354 µM
[3]
  Ki: 0.76 nM

## CC(=O)N1CCC(n2c(=O)n(C)c3cnc4ccc(-c5cnc6ccccc6c5)nc4c32)CC1 [Compound 120, 1-(1-acetylpiperidin-4-yl)-3-methyl-8-quinolin-3-yl-1,3-dihydro-2H-imidazo[4,5-c][1,5]naphthyridin-2-one]
[1]
  Ki: 5.41 nM
[2]; [5]
  IC50: 0.00459 µM
[3]
  Ki: 0.98 nM

## Cn1c(=O)n([C@H]2CC[C@H](O)CC2)c2c3nc(-c4cnn(CCO)c4)ccc3ncc21 [Compound 164, 1-(trans-4-hydroxycyclohexyl)-8-[1-(2-hydroxyethyl)-1H-pyrazol-4-yl]-3-methyl-1,3-dihydro-2H-imidazo[4,5-c][1,5]naphthyridin-2-one]
[1]
  Ki: 14 nM
[2]; [6]
  IC50: 0.448 µM
[3]
  Ki: 16.2 nM

## Cn1c(=O)n(C2CCN(C(=O)OCc3ccccc3)CC2)c2c3nc(-c4cnc5ccccc5c4)ccc3ncc21 [Compound 116, benzyl4-(3-methyl-2-oxo-8-quinolin-3-yl-2,3-dihydro-1H-imidazo[4,5-c][1,5]naphthyridin-1-yl)piperidine-1-carboxylate]
[1]
  Ki: 6.53 nM
[2]; [5]
  IC50: 0.0134 µM
[3]
  Ki: 2.91 nM

## COc1ncc(-c2ccc3ncc4c(c3n2)n(C2CCN(C(=O)CO)CC2)c(=O)n4C)cn1 [Compound 189, 1-(1-glycoloylpiperidin-4-yl)-8-(2-methoxypyrimidin-5-yl)-3-methyl-1,3-dihydro-2H-imidazo[4,5-c][1,5]naphthyridin-2-one]
[1]
  Ki: 1.95 nM
[2]; [6]
  IC50: 0.0272 µM
[3]
  Ki: 1.78 nM

## Cc1ccc(-c2ccc3ncc4c(c3n2)n(C2CCNCC2)c(=O)n4C)cn1 [Compound 177, 3-methyl-8-(6-methyl-pyridin-3-yl)-1-piperidin-4-yl-1,3-dihydro-1,3,5,9-tetraaza-cyclopenta[a]naphthalen-2-one]
[1]
  Ki: 7.21 nM
[2]; [6]
  IC50: 0.101 µM
[3]
  Ki: 2.45 nM

## Cc1ccc(-c2ccc3ncc4c(c3n2)n(C2CCN(C(N)=O)CC2)c(=O)n4C)cn1 [Compound 167, 4-[3-methyl-8-(6-methylpyridin-3-yl)-2-oxo-2,3-dihydro-1H-imidazo[4,5-c][1,5]naphthyridin-1-yl]piperidine-1-carboxamide]
[1]
  Ki: 1.28 nM
[2]; [6]
  IC50: 0.112 µM
[3]
  Ki: 1.93 nM

## CNC(=O)N1CCC(n2c(=O)n(C)c3cnc4ccc(-c5ccc(C)nc5)nc4c32)CC1 [Compound 181, N-methyl-4-[3-methyl-8-(6-methylpyridin-3-yl)-2-oxo-2,3-dihydro-1H-imidazo[4,5-c][1,5]naphthyridin-1-yl]piperidine-1-carboxamide]
[1]
  Ki: 1.06 nM
[2]; [6]
  IC50: 0.0594 µM
[3]
  Ki: 3.27 nM

## CNC(=O)N1CCC(n2c(=O)n(C)c3cnc4ccc(-c5cnc(OC)nc5)nc4c32)CC1 [Compound 186, 4-[8-(2-methoxypyrimidin-5-yl)-3-methyl-2-oxo-2,3-dihydro-1H-imidazo[4,5-c][1,5]naphthyridin-1-yl]-N-methylpiperidine-1-carboxamide]
[1]
  Ki: 3.06 nM
[2]; [6]
  IC50: 0.0681 µM
[3]
  Ki: 2.49 nM

## CN(C)c1ccc(-c2ccc3ncc4c(c3n2)n([C@H]2CC[C@H](O)CC2)c(=O)n4C)cn1 [Compound 175, 8-[6-(dimethylamino)pyridin-3-yl]-1-(trans-4-hydroxycyclohexyl)-3-methyl-1,3-dihydro-2H-imidazo[4,5-c][1,5]naphthyridin-2-one]
[1]
  Ki: 1.8 nM
[2]; [6]
  IC50: 0.00526 µM
[3]
  Ki: 0.666 nM

## CN(C)C(=O)CN1CCC(n2c(=O)n(C)c3cnc4ccc(-c5cnn(C)c5)nc4c32)CC1 [Compound 212, N,N-dimethyl-2-{4-[3-methyl-8-(1-methyl-1H-pyrazol-4-yl)-2-oxo-2,3-dihydro-1H-imidazo[4,5-c][1,5]naphthyridin-1-yl]piperidin-1-yl}acetamide]
[1]
  Ki: 27.9 nM
[2]; [6]
  IC50: 0.248 µM
[3]
  Ki: 14.7 nM

## Cn1c(=O)n(C2CCNCC2)c2c3nc(-c4cnc5ccccc5c4)ccc3ncc21 [Compound 118, 3-methyl-1-piperidin-4-yl-8-quinolin-3-yl-1,3-dihydro-2H-imidazo[4,5-c][1,5]naphthyridin-2-one]
[1]
  Ki: 13.2 nM
[3]
  Ki: 2.08 nM

## CN[C@H]1CC[C@H](n2c(=O)n(C)c3cnc4ccc(-c5cnc6ccccc6c5)nc4c32)CC1 [Compound 193, 3-methyl-1-[trans-4-(methylamino)cyclohexyl]-8-quinolin-3-yl-1,3-dihydro-2H-imidazo[4,5-c][1,5]naphthyridin-2-one]
[1]
  Ki: 13.1 nM
[2]; [5]
  IC50: 0.0404 µM
[3]
  Ki: 1.61 nM

## C[C@H](CO)n1c(=O)n(C)c2cnc3ccc(-c4cccc5[nH]ccc45)nc3c21 [Compound 237, 1-[(1R)-2-hydroxy-1-methylethyl]-8-(1H-indo1-4-yl)-3-methyl-1,3-dihydro-2H-imidazo[4,5-c][1,5]naphthyridin-2-one]
[4]
  Ki: 6.66 nM
[2]; [6]
  IC50: 0.0553 µM
[3]
  PI3Ka Ki: 29.6 nM

## C[C@H](CO)n1c(=O)n(C)c2cnc3ccc(-c4cnc(N)nc4)nc3c21 [Compound 235, 8-(2-aminopyrimidin-5-yl)-1-[(1R)-2-hydroxy-1-methylethyl]-3-methyl-1,3-dihydro-2H-imidazo[4,5-c][1,5]naphthyridin-2-one]
[4]
  Ki: 6.99 nM
[2]; [6]
  IC50: 0.331 µM
[3]
  PI3Ka Ki: 15.5 nM

## COc1ccc(-c2ccc3ncc4[nH]c(=O)n([C@H]5CC[C@H](O)CC5)c4c3n2)cn1 [Compound 132, 1-(trans-4-hydroxycyclohexyl)-8-(6-methoxypyridin-3-yl)-1,3-dihydro-2H-imidazo[4,5-c][1,5]naphthyridin-2-one]
[4]
  Ki: 1.39 nM
[2]; [6]
  IC50: 0.0468 µM
[3]
  PI3Ka Ki: 0.51 nM

## CCOC(=O)N1CCC(n2c(=O)n(C)c3cnc4ccc(-c5cnc6ccccc6c5)nc4c32)CC1 [Compound 127, ethyl 4-(3-methyl-2-oxo-8-quinolin-3-yl-2,3-dihydro-1H-imidazo[4,5-c][1,5]naphthyridin-1-yl)piperidine-1-carboxylate]
[4]
  Ki: 4.3 nM
[2]; [5]
  IC50: 0.0204 µM
[3]
  PI3Ka Ki: 1.38 nM

## Cn1cc(-c2ccc3ncc4c(c3n2)n(C2CCN(C(=O)C(C)(C)O)CC2)c(=O)n4C)cn1 [Compound 215, 1-[1-(2-hydroxy-2-methylpropanoyl)piperidin-4-yl]-3-methyl-8-(1-methyl-1H-pyrazol-4-yl)-1,3-dihydro-2H-imidazo[4,5-c][1,5]naphthyridin-2-one]
[4]
  Ki: 22 nM
[2]; [6]
  IC50: 0.0304 µM
[3]
  PI3Ka Ki: 4.67 nM

## Cc1ccc(-c2ccc3ncc4c(c3n2)n([C@H]2CC[C@H](OCCO)CC2)c(=O)n4C)cn1 [Compound 152, 1-[trans-4-(2-hydroxyethoxy)cyclohexyl]-3-methyl-8-(6-methylpyridin-3-yl)-1,3-dihydro-2H-imidazo[4,5-c][1,5]naphthyridin-2-one]
[4]
  Ki: 11.4 nM
[2]; [6]
  IC50: 0.00863 µM
[3]
  PI3Ka Ki: 1.68 nM

## Cn1c(=O)n([C@H]2CC[C@H](N)CC2)c2c3nc(-c4cnc5ccccc5c4)ccc3ncc21 [Compound 194, 1-(trans-4-aminocyclohexyl)-3-methyl-8-quinolin-3-yl-1,3-dihydro-2H-imidazo[4,5-c][1,5]naphthyridin-2-one]
[1]
  Ki: 7.91 nM
[2]; [5]
  IC50: 0.0464 µM
[3]
  Ki: 2.3 nM

Reference: patent publication US8791131B2, “Imidazo[1,5]naphthyridine compounds, their pharmaceutical use and compositions” (Pfizer Inc., priority 2008, dated 2014)
